Assay results: ChEMBL document CHEMBL1133590, “Study on selectin blocker. 8. Lead discovery of a non-sugar antagonist using a 3D-pharmacophore model” (J Med Chem, 2000)

Target: T1, E-selectin (Mus musculus, UniProt Q00690)
T1 sequence (Q00690 whole entry): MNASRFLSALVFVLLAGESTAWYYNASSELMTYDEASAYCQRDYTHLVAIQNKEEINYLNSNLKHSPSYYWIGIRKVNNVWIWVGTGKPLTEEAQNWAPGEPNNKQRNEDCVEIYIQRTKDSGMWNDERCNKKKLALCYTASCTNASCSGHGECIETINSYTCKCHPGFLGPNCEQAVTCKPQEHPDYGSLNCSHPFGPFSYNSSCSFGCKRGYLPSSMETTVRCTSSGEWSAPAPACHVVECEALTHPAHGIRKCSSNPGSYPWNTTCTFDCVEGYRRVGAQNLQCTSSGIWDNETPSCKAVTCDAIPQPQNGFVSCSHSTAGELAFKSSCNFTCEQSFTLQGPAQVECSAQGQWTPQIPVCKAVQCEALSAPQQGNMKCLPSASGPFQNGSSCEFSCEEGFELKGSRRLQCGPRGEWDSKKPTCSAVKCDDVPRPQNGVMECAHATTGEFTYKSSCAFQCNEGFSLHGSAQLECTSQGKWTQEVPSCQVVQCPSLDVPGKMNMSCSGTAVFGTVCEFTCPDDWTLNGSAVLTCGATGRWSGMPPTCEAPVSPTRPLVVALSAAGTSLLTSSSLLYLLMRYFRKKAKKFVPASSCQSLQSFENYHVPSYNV
Assay: Evaluated for the inhibitory activity against Selectin E

SMILES	IC50
CCCCCCCCCCCCCCCCCC(=O)Nc1ccc(C(=O)CC(=O)Nc2cc(C(=O)O)ccc2Oc2cc(C(=O)O)cc(C(=O)O)c2)cc1	1200 µM
CC(=O)N[C@H]1[C@H]([C@H](O)[C@H](O)CO)O[C@@](O[C@H]2[C@@H](O)[C@@H](CO)O[C@@H](O[C@@H]([C@H](O[C@@H]3O[C@@H](C)[C@@H](O)[C@@H](O)[C@@H]3O)[C@H](C=O)NC(C)=O)[C@H](O)CO)[C@@H]2O)(C(=O)O)C[C@@H]1O [SIALYL LEWIS X]	580 µM
CCCCCCCCCCCCCCC(CCCCCCCCCCCCCC)C(=O)N[C@@H](CO[C@@H]1OC(C)[C@@H](O)[C@H](O)C1O)C(=O)N[C@H](CCC(=O)O)C(=O)NC (stereo not given in full)	13 µM
CCCCCCCCCCCCCCCCCC(=O)Nc1ccc(C(=O)Nc2cc(C(=O)O)ccc2Oc2cc(C(=O)O)cc(C(=O)O)c2)cc1	> 500 µM
CCCCCCCCCCCCCCCCCC(=O)Nc1ccc(C(=O)Nc2cc(C(=O)O)ccc2Oc2cccc(C(=O)O)c2)cc1	86 µM
